Test results as given in US20240247253A1, “PRODUCTION METHOD OF POLYPEPTIDE, TAG, EXPRESSION VECTOR, EVALUATION METHOD OF POLYPEPTIDE, PRODUCTION METHOD OF NUCLEIC ACID DISPLAY LIBRARY, AND SCREENING METHOD” (FUJIFILM Corporation, priority 2021, published 2024).

Key:
[1] = tested on: cell-free peptide synthesis system derived from Escherichia coli; assay: Cell-free biosynthesis of DHFR partial sequence-HiBiT fusion proteins with tag, 10 minutes, Nano Glo HiBiT quantification; format: biochemical
Source text: Regarding the effect of increasing the biosynthesis amount of the polypeptide by the tag (VKKTKT tag) represented by SEQ ID NO: 27, the influence of the length of the polypeptide to be synthesized was examined. The polypeptide to be biosynthesized is a fusion protein containing a partial sequence of dihydrofolate reductase (DHFR) and a luminescent (HiBiT) tag.
A fusion protein in which a partial sequence of DHFR and a HiBiT tag were linked in this order was designed. Gly-Gly-Ser was inserted as a spacer between the partial sequence of DHFR and the HiBiT tag. The amino acid sequences of these fusion proteins are set forth in SEQ ID NOs: 113 and 114, and these fusion proteins are a fusion protein (80 amino acid length) of the amino acids ranging to the amino acid at position 66 from the N-terminal of DHFR with a HiBiT tag and a fusion protein (100 amino acid length) of the amino acids ranging to the amino acid at position 86 from the N-terminal of DHFR with a HiBiT tag. The base sequences encoding these fusion proteins are SEQ ID NOs: 115 and 116.
A base sequence encoding a tagged fusion protein in which methionine, a VKKTKT tag (SEQ ID NO: 27) or a SKIK tag (SEQ ID NO: 107), and a fusion protein (any of SEQ ID NO: 113 or 114) were linked in this order was designed. In this base sequence, a base sequence (SEQ ID NO: 73 or 110) encoding a VKKTKT tag or a SKIK tag is arranged immediately after the start codon ATG, and a base sequence (any of SEQ ID NO: 115 or 116) encoding a fusion protein is arranged immediately after the base sequence encoding the VKKTKT tag or the SKIK tag.
As a control example for evaluating the effect of the VKKTKT tag or the SKIK tag, a base sequence in which a base sequence (any of SEQ ID NO: 115 or 116) encoding each of fusion protein arranged immediately after the start codon ATG was designed.
The fusion protein was expressed using a cell-free peptide synthesis system similar to the cell-free peptide synthesis system used in Example 1 by setting the incubation time of biosynthesis to 10 minutes. The obtained fusion protein was quantified using Nano Glo HiBiT Lytic Detection System (Promega, N3040). The measurement was performed twice, and the average value of the amounts of the fusion protein was calculated. […] The control example of the reference value 1 has a form in which the base sequence (SEQ ID NO: 115 or 116) encoding the fusion protein is arranged immediately after the start codon ATG.

[2] = tested on: cell-free peptide synthesis system derived from Escherichia coli; assay: Cell-free biosynthesis of the integrin binding peptide fusion protein with N-terminal tag, 1 hour reaction, amount measured by ELISA; format: biochemical
Source text: In the cell-free peptide synthesis system derived from Escherichia coli, the effect of the VKKX tag on the biosynthesis amount of the polypeptide was examined. As a polypeptide to be biosynthesized, an integrin binding peptide containing cysteine and chloroacetyl lysine was selected. In this polypeptide, a thiol group of cysteine and a chloroacetyl group of chloroacetyl lysine spontaneously form a thioether bond to become a cyclic polypeptide.
A fusion protein in which an integrin binding peptide, a Myc tag, and a HiBiT tag were linked in this order was designed. As a spacer, Gly-Gly-Ser was inserted between the integrin binding peptide and the Myc tag and between the Myc tag and the HiBiT tag. The amino acid sequence of this fusion protein is SEQ ID NO: 5, and the base sequence encoding this fusion protein is SEQ ID NO: 6. In SEQ ID NO: 5, the integrin binding peptide ranges to the amino acid at the twelfth position (that is, alanine) from an N-terminal, and the amino acid at eleventh position from the N-terminal is chloroacetyl lysine. The triplet TAG at the positions 31 to 33 from the 5′ terminal of the base sequence set forth in SEQ ID NO: 6 was assigned to the codon of chloroacetyl lysine. The end of the base sequence set forth in SEQ ID NO: 6 is the stop codon TAA.
A base sequence encoding a tagged fusion protein in which methionine, a VKKX tag (any of SEQ ID nOs: 7 to 52), and a fusion protein (SEQ ID NO: 5) were linked in this order was designed. In this base sequence, a base sequence (any of SEQ ID nOs: 53 to 98) encoding a VKKX tag is arranged immediately after the start codon ATG, and a base sequence encoding a fusion protein immediately after the base sequence (SEQ ID NO: 6) encoding the VKKX tag is arranged.
As a control example for evaluating the effect of the VKKX tag, a base sequence in which a base sequence (SEQ ID NO: 6) encoding a fusion protein arranged immediately after the start codon ATG was designed.
In order to translate chloroacetyl lysine which is an unnatural amino acid, a tRNA in which the anticodon was CUA and paired with the UAG codon of mRNA was prepared. This tRNA was aminoacylated with an N-chloroacetyl lysine hosphoro 2′ deoxyribocytidylylriboadenosine (pdCpA) ester. This aminoacyl tRNA is referred to as an Aminoacyl tRNA (1).
The cell-free biosynthesis of the polypeptide was carried out in a translation solution containing a template DNA, PUREfrex 2.0 (GeneFrontier, PF201-0.25-5), and Aminoacyl tRNA (1). 1.25 μL (62.5 ng) of the template DNA prepared to 50 ng/μL, 2.5 μL of PUREfrex 2.0 Solution I, 0.25 μL of Solution II, 0.5 μL of Solution III, and 0.5 μL of Aminoacyl tRNA (1) were mixed and mixture was subjected to a reaction at 37° ° C. for 1 hour.
The amount of the biosynthesized polypeptide was measured by ELISA. 50 ng of Recombinant Human Integrin αVβ3 (R&D systems, 3050-AV-050) was immobilized in each well of a 96-well plate and blocked with Blocker Casein in PBS (Thermo, 37528), and then a cell-free biosynthesis solution diluted with Can Get Signal Immunoreaction Enhancer Solution I (TOYOBO, NKB-101) containing 5 mmol/L MgCl2 was added thereto, and the mixture was subjected to a reaction at room temperature for 3 hours. After washing with 5 mmol/L MgCl2/0.05% Tween 20-containing phosphate buffered saline (PBS), an anti-Myc antibody (Cell Signaling, 14038S) diluted with Can Get Signal Immunoreaction Enhancer Solution II (TOYOBO, NKB-101) was added thereto, and the mixture was subjected to a reaction at room temperature for 2 hours. After washing with PBS containing 5 mmol/L MgCl2/0.05% Tween 20, Super Signal ELISA Femto Substrate (Thermo, 37075) was added thereto, and the luminescence was measured. The amount of the fusion protein in the cell-free biosynthesis solution was calculated based on a calibration curve created from the fusion protein having a known concentration. The luminescence measurement was performed twice, and the average value of the amounts of the fusion protein was calculated. […]

[3] = fusion protein SEQ ID NO 113, amino acid length 80, control without tag = 1
[4] = fusion protein SEQ ID NO 114, amino acid length 100, control without tag = 1

Row | Substance | Biosynthesis amount of fusion protein [1, 3] | Biosynthesis amount of fusion protein [1, 4] | increase of biosynthesis amount of the fusion protein ([2]; Example 1, versus control without tag, fusion protein SEQ ID NO: 5, 1 hour) [times] | Biosynthesis amount of fusion protein ([2]; relative value, control example without tag = 1, fusion protein SEQ ID NO: 5, 37° C. for 1 hour, average of two measurements) | Biosynthesis amount of fusion protein ([2]; tag encoded by base sequence SEQ ID NO 73, GC content 17%, control without tag = 1) | Biosynthesis amount of fusion protein ([2]; tag encoded by base sequence SEQ ID NO 111, GC content 33%, control without tag = 1) | Biosynthesis amount of fusion protein ([2]; tag encoded by base sequence SEQ ID NO 112, GC content 50%, control without tag = 1) | Biosynthesis amount of fusion protein ([2]; tag encoded by base sequence SEQ ID NO 108, GC content 8%, control without tag = 1) | Biosynthesis amount of fusion protein ([2]; tag encoded by base sequence SEQ ID NO 109, GC content 25%, control without tag = 1) | Biosynthesis amount of fusion protein ([2]; tag encoded by base sequence SEQ ID NO 110, GC content 42%, control without tag = 1)
1 | SEQ ID NO: 27: VKKX tag, amino acid sequence VKKTKT (VKKX Tag) | 1.67 | 1.24 | 4.9 | 4.94 | 4.94 | 3.83 | 3.77 | – | – | –
2 | SEQ ID NO: 107: tag consisting of an amino acid sequence of SKIK, disclosed in WO2016/204198A; comparative control (SKIK Tag) [reference compound] | 1.13 | 0.73 | – | – | – | – | – | 3.79 | 4.18 | 1.46
